According to US9393199B2, “Methods and compositions for localized agent delivery” (Massachusetts Institute of Technology, priority 2008, dated 2016):

Tests used:
[1] = systemically injected; cited from earlier work
[2] = Kinetics of protein release from lipid-coated PLGA particles in vitro (ELISA of supernatant); type: physicochemical; details: complete RPMI 10% FCS, 37° C., by the end of the incubation period (~1 week)
Method: FIGS. 5A-C. Protein and TLR ligand incorporation in lipid-coated PLGA nanoparticles. (A) Confocal image (left) and cryoEM image (right) of lipid-coated nanoparticles loaded with fluorescent ova in the particle cores. Note that the particles in the confocal image are artificially aggregated here by drying on a coverslip for imaging. (B) Kinetics of IL-15 release from lipid-coated PLGA particles in vitro in complete medium at 37° C. (C) Bone marrow-derived DCs were incubated with 3 mg/mL lipid-nanoparticles containing 1 mole % or 10 mole % MPLA in the lipid coating, equivalent amounts of soluble MPLA (30 μg/mL or 3 μg/mL), or soluble LPS (1 μg/mL) as a positive control. At 24 hrs, the maturation status of the cells was assessed by flow cytometry analysis of cell surface MHC II, CD80, and CD40 (not shown).
Ova however is a model globular protein and as such it was chosen to illustrate the behavior of other proteins such as interleukin-15 (IL-15) superagonist molecules which can be used to support ACT T cells. […] The kinetics of IL-15 release from the particles was determined by incubating the particles in complete RPMI medium containing 10% FCS at 37° C. with gentle agitation and taking aliquots of the supernatant at staggered timepoints for ELISA analysis of cytokine content. […]

[3] = cited from earlier work
[4] = systemic, delivered orally, humans; cited from earlier work
[5] = tested on: lineage−Sca-1+c-kit+ progenitor cells; test: Reconstitution by hematopoietic progenitor cell grafts in lethally irradiated recipients; type: in vivo; details: 1.6 ng TWS119 at the time of transplantation
Method: FIGS. 14A-D. Hematopoietic progenitor cells (referred to in the Figure as HSCs) carrying GSK-3β inhibitor-loaded nanoparticles reconstitute recipient animals with rapid kinetics following bone marrow transplants without affecting multilineage differentiation potential. (A, B) Engraftment kinetics of luciferase-transgenic HSC grafts in lethally-irradiated nontransgenic syngeneic recipients. Mice were treated with a single bolus injection of the GSK-3β inhibitor TWS119 (1.6 ng) on the day of transplantation, an equivalent TWS119 dose encapsulated in HSC-attached DNA-gel nanoparticles, or no exogenous agent. Transplanted mice were imaged for whole-body bioluminescence every 7 days for 3 weeks. Shown are representative IVIS images (A) and whole animal photon counts (B) for 9 mice total/treatment condition. (C) Percentage of donor-derived cells in recipient mice 2 weeks after transplantation of GFP^+ HSCs with or without TWS119. *P<0.001. (D) Average frequency of donor-derived GFP^+ B cells, T cells, and myeloid cells in recipient mice 3 months after transplantation. 5 mice/group were analyzed.
We further examined the utility of this delivery approach in the context of hematopoietic stem cell transplantations. We treated C57Bl/6 F-luc-transgenic mice or C57Bl/6 GFP-transgenic mice with 5-fluorouracil (5-FU, Sigma Aldrich) (150 mg/kg, i.p) and euthanized them 3 days later. […]

[6] = Release of cargo from lipid-coated DNA-gel nanoparticles (data not shown); type: physicochemical; details: lipid-coated DNA-gel particles ~200 nm

IL-15: Interleukin-15, cytokine; encapsulated alone in lipid-coated PLGA particles in b217
half life [1]: ~1 h
encapsulated cytokine released [2]: ~80%

CC(C)Cn1cnc2c(N)nc3ccccc3c21 [imiquimod]
half-life following injection [3]: ~2 h
toxicity [4]: dose-limiting toxicity

Nc1cccc(-c2cc3c(Oc4cccc(O)c4)ncnc3[nH]2)c1 [TWS119]
engraftment kinetics / proliferative reconstitution of progenitor cell grafts [5]: did not significantly alter
period of slow release from DNA-gel nanoparticles [6]: 7 days
